What was measured:
Type in all cases: functional
[1] = test system: Human immunodeficiency virus 1; assay: Antiviral activity against HIV-1 subtype CRF02_AG containing reverse transcriptase E138A/K20R, V35T, E36A, T39D, V60I, I135V, T139I, K173A, Q174K, T200E, Q207A, R211K, F214L mutant relative to control
[2] = test system: Human immunodeficiency virus 1; assay: Antiviral activity against HIV-1 subtype CRF02_AG containing reverse transcriptase V90I,Y181C/V35T, T39M, P119S, D123E, S162A, E169D, K173T, Q174K, D177E, T200A, Q207E, K219N, V245Q, E248D mutant relative to control
[3] = test system: Human immunodeficiency virus 1; assay: Antiviral activity against HIV-1 subtype CRF02_AG containing reverse transcriptase Y181C/V35T, V60I, I135V, S162A, K173T, Q174K, N175Y, D177E, T200A, Q207E, R211K, H221Y mutant relative to control
[4] = test system: Human immunodeficiency virus 1; assay: Antiviral activity against HIV-1 subtype CRF02_AG containing reverse transcriptase K101E/K30E, I31P, V35Q, T39S, E44G, E53G, A62G, N81H, Q91H,I135V,S162A, K173S, Q174R, D177E, V179I, T200I, Q207N, R211K, F214L mutant relative to control
[5] = test system: Human immunodeficiency virus 1; assay: Antiviral activity against HIV-1 subtype CRF02_AG containing reverse transcriptase A98G/V35T, V60I, I135L, S162A, K173A, Q174K, D177E, I178M, T200A,Q207E, R211K, V245Q, D250E mutant relative to control
[6] = test system: Human immunodeficiency virus 1; assay: Antiviral activity against HIV-1 subtype CRF02_AG containing reverse transcriptase E138A/K20R, V35T, E36D, T39N, V60I, D123N, I135V, S162A, K173T, Q174K, D177E, T200A, Q207E, R211K mutant relative to control
[7] = test system: Human immunodeficiency virus 1; assay: Antiviral activity against HIV-1 subtype CRF02_AG containing reverse transcriptase V90I/V35T, T39M, K46Q, V60I, S68G, D123E, I135V, S162A, K173A, Q174K,D177E, T200A, Q207E, R211K mutant relative to control
[8] = test system: Human immunodeficiency virus 1; assay: Antiviral activity against HIV-1 subtype CRF02_AG containing reverse transcriptase V90I/V35T, E36D, V60I, K122E, D123S, I135V, E138D, S162A, K173T,Q174S, D177E, I178M, V189I, T200A, I202V, Q207E, F214L, V245Q mutant relative to control
[9] = test system: Human immunodeficiency virus 1; assay: Antiviral activity against HIV-1 subtype CRF02_AG containing reverse transcriptase V90I,A98G/V35T, E36D, T39K, S48A, I50V, V60I, S68G, I135V, S162A, K173T, Q174K, D177E, G196E, T200A, E203G, Q207D, R211K, Q222P mutant relative to control

| Compound | Ratio IC50 [1] | Ratio IC50 [2] | Ratio IC50 [3] | Ratio IC50 [4] | Ratio IC50 [5] | Ratio IC50 [6] | Ratio IC50 [7] | Ratio IC50 [8] | Ratio IC50 [9] |
| --- | --- | --- | --- | --- | --- | --- | --- | --- | --- |
| Cc1cc(C#N)cc(C)c1Oc1nc(Nc2ccc(C#N)cc2)nc(N)c1Br [ETRAVIRINE] | 3 | 3.3 | 11.1 | 1.3 | 2.9 | 1.7 | 1.6 | 1.3 | 1.2 |
| Cc1ccnc2c1NC(=O)c1cccnc1N2C1CC1 [NEVIRAPINE] | 0.5 | >70.9 | >49.6 | 2.2 | 8.3 | 0.4 | 1.3 | 0.7 | 2.4 |
